Experimental findings from patent US8309582B2, “Small molecule Bcl-Xl/Bcl-2 binding inhibitors” (The Ohio State University Research Foundation, priority 2004, dated 2012) are described below.

Molecules are shown by their SMILES. Where two headings read alike, the source gives them in different places. A value given as a limit tells only on which side of the number the result lay.

The subject of one data set is LNCaP cells. Kind of data set: Cell viability analysis (MTT) in LNCaP cells. Format: cell-based. The following applies: Homo sapiens. The method, then: (§1) Cell viability analysis. The effect of individual test agents on cell viability was assessed by using the MTT {[3-(4,5-dimethylthiazol-2-yl)-2,5-diphenyl-2H-tetrazolium bromide]} assay in six to twelve replicates. Cells were seeded and incubated in 96-well, flat-bottomed plates in serum-free media for 24 h, and were exposed to various concentrations of test agents dissolved in DMSO (final concentration, 0.1%) in serum-free RPMI 1640 medium for different time intervals. Controls received DMSO vehicle at a concentration equal to that in drug-treated cells. The medium was removed, replaced by 200 μl of 0.5 mg/ml of MTT in 10% FBS-containing RPMI-1640 medium, and cells were incubated in the CO2 incubator at 37° C. for 2 h. Supernatants were removed from the wells, and the reduced MTT dye was solubilized in 200 μl/well DMSO. Absorbance at 570 nm was determined on a plate reader.
(§2) Determination of IC50 values. Data from cell viability and FP assays were analyzed by using the CalcuSyn software (Biosoft, Ferguson, Mo.) to determine IC50 values, in which the calculation was based on the medium effect equation (18), i.e., Log(fa/fu)=m log(D)−m log(Dm) (equation 1), where fa and fu denote fraction affected and unaffected, respectively; m represents the Hill-type coefficient signifying the sigmoidicity of the dose-effect curve; D and Dm are the dose used and IC50, respectively.

Another data set deals with T1, Bcl-xL (Homo sapiens, UniProt Q07817).
T1 construct: fused on or other part: His tag
T1 sequence (Q07817 1-209 limits assumed): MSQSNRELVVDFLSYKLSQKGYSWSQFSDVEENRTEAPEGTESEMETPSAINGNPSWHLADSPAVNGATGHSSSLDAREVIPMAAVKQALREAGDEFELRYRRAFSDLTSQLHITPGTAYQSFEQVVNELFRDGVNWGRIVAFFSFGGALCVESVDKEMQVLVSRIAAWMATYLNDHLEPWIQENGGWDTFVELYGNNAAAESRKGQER
In words: Competitive fluorescence polarization assay, displacement of Flu-BakBH3 peptide from Bcl-xL. The data set is classed as binding. The method, then: (§3) Competitive Fluorescence Polarization Assay. The binding affinity of the test agent to Bcl-2 and Bcl-xL was analyzed by a competitive fluorescence polarization assay, in which the ability of the agent to displace the binding of a Bak BH3-domain peptide to either Bcl-2 or Bcl-xL was determined. Flu-BakBH3, a Bak-BH3 peptide labeled at the N-terminus with fluorescein, was purchased from Genemed Synthesis (San Francisco, Calif.). C-Terminal-truncated, His-tagged Bcl-xL was purchased from EMD Biosciences (San Diego, Calif.), and soluble GST-fused Bcl-2 was obtained from Santa Cruz (Santa Cruz, Calif.). The KD determination was carried out in a dual-pathlength quartz cell with readings taken at […] at room temperature using a luminescence spectrometer according to an established procedure (17). Determination of IC50 values. Data from cell viability and FP assays were analyzed by using the CalcuSyn software (Biosoft, Ferguson, Mo.) to determine IC50 values, in which the calculation was based on the medium effect equation (18), i.e., Log(fa/fu)=m log(D)−m log(Dm) (equation 1), where fa and fu denote fraction affected and unaffected, respectively; m represents the Hill-type coefficient signifying the sigmoidicity of the dose-effect curve; D and Dm are the dose used and IC50, respectively.

The test system of a further data set is PC-3 cells. Kind of data set: Cell viability analysis (MTT) in PC-3 cells. The data set is classed as cell-based. The following applies: read-out: IC50 (μM) PC3. As for the experimental part:
Cell viability analysis. The effect of individual test agents on cell viability was assessed by using the MTT {[3-(4,5-dimethylthiazol-2-yl)-2,5-diphenyl-2H-tetrazolium bromide]} assay in six to twelve replicates. […] Controls received DMSO vehicle at a concentration equal to that in drug-treated cells. […] Supernatants were removed from the wells, and the reduced MTT dye was solubilized in 200 μl/well DMSO. Absorbance at 570 nm was determined on a plate reader.
as §2

Another data set has as its target Bcl-2 (Homo sapiens, UniProt P10415). Kind of data set: Competitive fluorescence polarization assay, displacement of Flu-BakBH3 peptide from Bcl-2. The data set is classed as binding. The method, then:
as §3

For another data set, the system named is PC-3 xenograft tumors. Kind of data set: Xenograft tumor growth (PC-3 tumors in nude mice).
Another data set addresses T2, PPARγ (Homo sapiens, UniProt P37231).
T2 construct: endogenous in cells; host or cells: PC-3 prostate cancer cells
T2 sequence (P37231 1-505): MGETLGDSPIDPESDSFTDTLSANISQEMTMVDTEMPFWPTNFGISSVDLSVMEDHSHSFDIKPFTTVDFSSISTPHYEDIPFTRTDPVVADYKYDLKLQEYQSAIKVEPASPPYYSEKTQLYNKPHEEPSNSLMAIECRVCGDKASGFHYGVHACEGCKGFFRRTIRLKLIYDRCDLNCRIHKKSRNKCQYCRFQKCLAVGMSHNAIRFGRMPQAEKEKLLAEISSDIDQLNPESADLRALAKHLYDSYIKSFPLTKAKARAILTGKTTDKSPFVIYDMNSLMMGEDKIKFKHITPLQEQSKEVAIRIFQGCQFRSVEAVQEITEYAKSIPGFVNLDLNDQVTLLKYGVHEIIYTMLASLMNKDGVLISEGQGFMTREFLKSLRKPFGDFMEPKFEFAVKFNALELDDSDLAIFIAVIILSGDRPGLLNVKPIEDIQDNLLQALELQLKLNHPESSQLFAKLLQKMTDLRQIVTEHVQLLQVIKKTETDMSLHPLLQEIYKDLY
Kind of data set: Analysis of PPARγ activation (transcription factor ELISA, PC-3 nuclear extracts). Format: cell-based. The following applies: PC-3 cells, 10 μM, 48 h, versus DMSO vehicle. The method, then: Analysis of PPARγ activation. The analysis was carried out by using a PPARγ transcription factor ELISA kit (Active Motif, Carlsbad, Calif.), in which an oligonucleotide containing the peroxisome proliferator response element (PPRE) was immobilized onto a 96-well plate. PPARs contained in nuclear extracts bind specifically to this oligonucleotide and are detected through an antibody directed against PPARγ. […] Cells were collected, and nuclear extracts were prepared with a Nuclear Extract kit (Active Motif, Carlsbad, Calif.). Nuclear extracts of the same protein concentration from individual treatments were subject to the PPARγ transcription factor ELISA according to the manufacturer's instruction.
On the technique in general: An ELISA detects its analyte on a solid surface through an enzyme-linked reagent.

A short description of data set [1]: WB (IC50 for WB, Tables 1-9). The conditions noted are these: marker, cell line and unit inferred. The data set is classed as cell-based. As for the experimental part:
(§4) Immunoblotting. Cells in T-75 flasks were collected by scraping, and suspended in 60 μl of phosphate-buffered saline (PBS). Two μl of the suspension was taken for protein analysis using the Bradford assay kit (Bio-Rad, Hercules, Calif.). To the remaining solution was added the same volume of 2×SDS-PAGE sample loading buffer (100 mM Tris-HCl, pH 6.8, 4% SDS, 5% β-mercaptoethanol 20% glycerol, and 0.1% bromophenol blue). The mixture was sonicated briefly, and boiled for 5 min. Equal amounts of proteins were loaded onto 10% SDS-PAGE gels.
(§5) After electrophoresis, protein bands were transferred to nitrocellulose membranes in a semidry transfer cell. The transblotted membrane was washed twice with Tris-buffered saline (TBS) containing 0.1% Tween 20 (TBST). After blocking with TBST containing 5% nonfat milk for 40 min, the membrane was incubated with the appropriate primary antibody in TBST-1% nonfat milk at 4° C. overnight. All primary antibodies were diluted 1:1000 in 1% nonfat milk-containing TBST. After treatment with the primary antibody, the membrane was washed three times with TBST for a total of 15 min, followed by incubation with goat anti-rabbit or anti-mouse IgG-horseradish peroxidase conjugates (diluted 1:5000) for 1 h at room temperature and three washes with TBST for a total of 1 h. The immunoblots were visualized by enhanced chemiluminescence.

The nature of data set [2]: MTT assay (IC50 for MTT, Tables 1-9). Format: cell-based. The conditions noted are these: cell line and unit inferred. The method, then:
as §1, §2

In another data set the target is T3, Bcl-xL/Bak (Homo sapiens, UniProt Q07817).
T3 construct: endogenous in cells; host or cells: PC-3 prostate cancer cells
T3 sequence (Q07817 whole entry): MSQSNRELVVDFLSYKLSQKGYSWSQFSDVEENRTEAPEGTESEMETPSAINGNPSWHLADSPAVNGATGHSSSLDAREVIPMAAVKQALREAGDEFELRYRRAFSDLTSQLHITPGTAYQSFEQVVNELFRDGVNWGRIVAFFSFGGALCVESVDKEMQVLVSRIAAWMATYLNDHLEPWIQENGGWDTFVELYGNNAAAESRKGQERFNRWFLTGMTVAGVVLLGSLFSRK
Kind of data set: Co-immunoprecipitation of Bak with Bcl-xL in PC-3 cells. The data set is classed as cell-based. The conditions noted are these: 50 μM, 12 h, compared to DMSO control. The method, then: (§6) Co-immunoprecipitation. […] After centrifugation at 13000×g for 15 min, the supernatants were collected, pre-incubated with protein A-Sepharose (Sigma, St. Louis, Mo.) for 15 min, and centrifuged at 1000×g for 5 min. The supernatants were exposed to Bcl-2 or Bcl-xL antibodies in the presence of protein A-Sepharose at 4° C. for 2 h. After brief centrifugation, protein A-Sepharose were collected, washed with the aforementioned lysis buffer 2 times, suspended in 2×SDS sample buffer, and subjected to Western blot analysis with antibodies against Bak.

The test system of the next data set is caspase-9. In words: Caspase-9 activation in PC-3 cells (Western blot). The data set is classed as cell-based. The following applies: 24 h. The method, then:
as §4, §5
(In general: Immunoblotting shows a protein as a band on a membrane.)

Another data set concerns the target T4, Bcl-2/Bak (Homo sapiens, UniProt P10415).
T4 construct: endogenous in cells; host or cells: PC-3 prostate cancer cells
In words: Co-immunoprecipitation of Bak with Bcl-2 in PC-3 cells. Format: cell-based. The following applies: 50 μM, 12 h, compared to DMSO control. As for the experimental part:
as §6

The mark [3] stands for this setting: inhibition of Bak BH3 peptide binding to Bcl-xL, FP, read-out: IC50 Bcl-xl/Bak.
[4] abbreviates: inhibition of Bak BH3 peptide binding to Bcl-2, FP, read-out: IC50 Bcl-2/Bak.

Bcl-2, sequence (P10415 whole entry): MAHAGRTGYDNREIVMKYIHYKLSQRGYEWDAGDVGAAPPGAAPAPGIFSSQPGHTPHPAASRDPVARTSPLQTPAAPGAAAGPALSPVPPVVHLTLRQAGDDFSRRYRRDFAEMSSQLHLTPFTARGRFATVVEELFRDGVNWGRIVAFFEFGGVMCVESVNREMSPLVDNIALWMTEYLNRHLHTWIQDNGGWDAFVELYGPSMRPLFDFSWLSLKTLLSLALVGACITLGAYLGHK
T4 sequence (P10415 whole entry): as above
Protocol for PC-3 xenograft tumors: Xenograft tumor growth. Male NCr athymic nude mice (5-7 weeks of age) were obtained from the National Cancer Institute (Frederick, Md.). […] All experimental procedures utilizing these mice were performed in accordance with protocols approved by the Institutional Laboratory Animal Care and Use Committee of The Ohio State University.
Each mouse was inoculated subcutaneously in the right flank with 5×10^5 PC-3 cells suspended in 0.1 ml of serum-free medium containing 30% Matrigel (BD Biosciences, Bedford, Mass.) under isoflurane anesthesia. […] Controls received vehicle consisting of 0.5% methylcellulose and 0.1% polysorbate 80 in sterile water. The volume of drug or vehicle administered to each mouse was 0.02 ml/gram body weight. Tumors were measured weekly using calipers and their volumes calculated using a standard formula: width^2×length×0.52. Body weights were measured weekly.
Statistical analysis. […] Tumor growth data are expressed as mean tumor volumes±SE. For all data, differences were considered significant at P<0.05. Statistical procedures were performed using SPSS for Windows (SPSS, Inc., Chicago, Ill.).

Consider `Cc1c(C)c2c(c(C)c1O)CCC(C)(COc1ccc(CC3SC(=O)NC3=O)cc1)O2` (stereo not drawn) [TG, troglitazone, reference compound], for which the IC50 in the data set with LNCaP cells was determined as 22 ± 3 µM; on Bcl-xL (setting [3]), 22 ± 1 µM; in the data set on PC-3 cells (Homo sapiens, PC-3, PC-3 cells), 30 ± 2 µM; on Bcl-2 (setting [4]), 22 ± 1 µM.
Take `CC(C)=CCOc1c(C)c(C)c2c(c1C)CCC(C)(COc1ccc(/C=C3\SC(=O)NC3=O)cc1Br)O2` (stereo not drawn) [TG-88]: the “extent of tumor growth inhibition” value in the data set with PC-3 xenograft tumors (100 mg/kg/day oral, after 63 days of treatment) amounted to 50%; in the data set with PC-3 xenograft tumors (200 mg/kg/day oral, after 63 days of treatment), 61%. In addition, in the data set with PC-3 xenograft tumors (100 and 200 mg/kg/day oral, nude mice), the “tolerability, signs of toxicity” value was “without observable signs of toxicity”. Moreover, in the data set with PC-3 xenograft tumors (100 and 200 mg/kg/day oral, throughout the course of study), the body weights result was “stable body weights”. For the same molecule, the “gross pathology at necropsy” value with PC-3 xenograft tumors (after 63 days of treatment) is reported as “No gross pathological abnormalities”. For the same molecule, the IC50 on Bcl-xL (setting [3]) was 1.8 ± 0.2 µM; in the data set on PC-3 cells (Homo sapiens, PC-3, PC-3 cells), 2.5 ± 0.2 µM; with PC-3 cells (PC-3 cells), 4.2 ± 0.2 µM; on Bcl-2 (setting [4]) it was 2.8 ± 0.3 µM; in data set [1], more than 7.5 µM. For the same molecule, the “activity in PPARγ activation” value at PPARγ is given as “lacked appreciable activity”.
Consider `CC1(COc2ccc(/C=C3\SC(=O)NC3=O)cc2)CCCCC1` [Δ2-CG, 5-[4-(1-methyl-cyclohexylmethoxy)-benzylidene]-thiazolidine-2,4-dione], for which the IC50 was determined as 17 ± 2 µM at Bcl-xL (setting [3]); 15 ± 1.2 µM in the data set with PC-3 cells (Homo sapiens, PC-3, PC-3 cells); 70 µM in data set [2]; 22 ± 3 µM at Bcl-2 (setting [4]); 13 µM in data set [1]. For the same molecule, on PPARγ, the “activity in PPARγ activation” value is listed as “completely devoid of the ligand binding activity”.
Consider `Cc1c(C)c2c(c(C)c1O)CCC(C)(COc1ccc(/C=C3\SC(=O)NC3=O)cc1)O2` (stereo not drawn) [Δ2-TG, 5-[4-(6-hydroxy-2,5,7,8-tetramethyl-chroman-2-ylmethoxy)-benzylidene]-2,4-thiazolidine-dione], for which the IC50 in the data set on LNCaP cells worked out at 14 ± 1 µM; at Bcl-xL (setting [3]) it was 18 ± 1 µM; in the data set on PC-3 cells (Homo sapiens, PC-3, PC-3 cells) it was 20 ± 2 µM; at Bcl-2 (setting [4]) it was 18 ± 1 µM; in [1] it was 22 µM. Besides, on Bcl-xL/Bak, the “level of Bak associated with Bcl-xL” value is “significantly reduced”. Besides, at PPARγ, the “activity in PPARγ activation” value was “completely devoid of the ligand binding activity”. Besides, the caspase-9 activation entry in the data set with caspase-9 was “dose-dependent”. On Bcl-2/Bak, the “level of Bak associated with Bcl-2” value is “significantly reduced”.
Turning to `CCc1ccc(CCOc2ccc(/C=C3\SC(=O)NC3=O)cc2)nc1` [Δ2-PG, 5-{4-[2-(5-ethyl-pyridin-2-yl)-ethoxy]-benzylidene}-thiazolidine-2,4-dione], the IC50 at Bcl-xL (setting [3]) was more than 50 µM; on Bcl-xL (unit inferred, read-out: IC50 for inhibiting BH3-mediated protein interactions (Bcl-xL)) it was more than 50 µM; in the data set with PC-3 cells (Homo sapiens, PC-3, PC-3 cells), more than 50 µM; at Bcl-2 (setting [4]), more than 50 µM; on Bcl-2 (unit inferred, read-out: IC50 for inhibiting BH3-mediated protein interactions (Bcl-2)), more than 50 µM. For the same molecule, the “activity in PPARγ activation” value at PPARγ is recorded as “completely devoid of the ligand binding activity”.
